Laboratory results as given in US7968543B2 (priority 2007, dated 2011).
“Also recorded” adds a separate entry of the source. Like-named read-outs stand apart in the source and are kept apart here.

Key:
[1] = Phase I clinical trial, human oral pharmacokinetics; settings: in vivo, 12 mg
[2] = mouse, in vivo, 1 mg/kg
[3] = Phase I clinical trial, safety and tolerability
Source text: (§1) The study was open labeled and designed to determine the safety, tolerability, dose limiting toxicity (DLT), pharmacokinetics and pharmacodynamics of escalating doses. […] If two or more patients in the expanded cohort experiences first course DLT, no further patients will enroll at that dose and the next lower dose level will be declared the maximum tolerated dose (MTD). Primary endpoints for the study are safety, tolerability, dose limiting toxicity (DLT), and PK. Secondary endpoint is PD.

[4] = test system: subcutaneous MV4-11 tumors
Experimental: Xenograft was initiated from MV4-11 FLT3-dependent human leukemia cells cultured in Iscove's Modified Dulbecco's medium supplemented with 10% heat-inactivated fetal bovine serum, 100 units/mL penicillin G, 100 μg/mL streptomycin sulfate, 0.25 μg/mL amphotericin B, 2 mM glutamine, 0.075% sodium bicarbonate, and 25 μg/mL gentamicin. Tumor cells were maintained in humidified atmosphere of 95% air and 5% CO2 at 37° C. The cells were harvested during logarithmic phase growth and resuspended at a concentration of 5×10^7 cells/mL in 50% Matrigel matrix (BD Biosciences) and 50% PBS. MV4-11 cells (1×10^7) were implanted subcutaneously into the right flank of each test mouse and the growth of tumors was monitored. Twelve days later, on Day 1 of the study, mice were placed in eight groups each consisting of ten mice with individual tumor sizes of 126 to 221 mm^3 and group mean tumor size of 174 mm^3, tumor volume calculated as a product of width×width×length in mm of an MV4-11 tumor. […] Each dose of drug was given in a volume of 0.2 mL per 20 g of body weight (10 mL/kg) and was adjusted for the body weight of the animal. Each animal was sacrificed when its tumor reached the predetermined endpoint size of 1,000 mm^3 or on the last day of the study (Day 59), whichever came first.
In a follow-on study at the 10 mg/kg oral dose, tumor size was monitored for an additional 60 days after dosing was discontinued.

[5] = test system: relapsed or refractory acute myeloid leukemia; settings: for Efficacy: Human, by comparison with efficacious exposure in mice
Source text: as §1

in vivo = settings: mouse, plasma, oral, 1 mg/kg
RS4-11 cell line = settings: read-out: IC50 (nM), Proliferation, RS 4, 48 hour incubation
[6] = Ninety-day toxicity study in rats; format: in vivo, rat
Experimental: (§2) For rats, the compound was administered at a dose of 1, 3, or 10 mg/kg/day.

clinical = settings: human, in vivo; for AUC(0-t): SS AUC0-24 (ng * h/mL)
[7] = in vivo
[8] = Mouse oral pharmacokinetics / exposure
[9] = Ninety-day toxicity study in dogs; format: in vivo, dog
Experimental: as §2
For dogs, the compound was administered at a dose of 1, 5, or 15 mg/kg/day.

[10] = follow-on study, 10 mg/kg oral, monitored 60 days after dosing discontinued, ten animals

CC(C)(C)c1cc(NC(=O)Nc2ccc(-c3cn4c(n3)sc3cc(OCCN5CCOCC5)ccc34)cc2)no1 [compound of Formula I, N-(5-tert-butyl-isoxazol-3-yl)-N′-{4-[7-(2-morpholin-4-yl-ethoxy)imidazo[2,1-b][1,3]benzothiazol-2-yl]phenyl}urea]
Cmax [1]: 11.2 ng/mL | ΔT [2]: 6 h | deaths ([3]; Cohorts 1 and 2, one unrelated fungal infection, one congestive heart failure possibly drug related): Two | Grade 1 (mild) drug-related adverse events: instance of cough ([3]; human, in vivo): one | Grade 1 (mild) drug-related adverse events: instance of decreased appetite ([3]; human, in vivo): one | Grade 1 (mild) drug-related adverse events: instance of disgeusia ([3]; human, in vivo): one | Grade 1 (mild) drug-related adverse events: instances of abdominal distension/constipation ([3]; human, in vivo): two | Grade 1 (mild) drug-related adverse events: instances of nausea/vomiting ([3]; human, in vivo): two | dose limiting toxicity (DLT) ([3]; human, in vivo): reported as a DLT | grade of other possibly drug-related AEs ([3]; human, in vivo): ≤ 2 grade | hematological toxicity ([3]; human, in vivo): no hematological toxicity was observed | MTD ([3]; up to 450 mg/day, either schedule): has not yet been observed | tumor response ([4]; 1 mg/kg (3 mg/m^2, p.o., QD)): tumor growth inhibition | tumor response ([4]; 3 mg/kg p.o. QD for 28 days): tumor regression | tumor response ([4]; 10 mg/kg p.o. QD for 28 days): tumor regression | Efficacy ([4]; Mouse, 1 mg/kg): Yes | complete responses [4, 10]: eight | partial responses [4, 10]: two | hematological improvement ([5]; Cohort 2, 18 mg, individual patients): major hematological improvement; also recorded: minor hematological improvement | Efficacy ([5]; 12 mg): Possible | Efficacy ([5]; 18 mg): Possible | patients with hematological improvement ([5]; cohort 2 (18 mg)): three | patients with complete response (CR) ([5]; first 45 pts): Four | responders that were WT ([5]; human, in vivo): five | non-responding patients with ITD mutations with initial rapid clearing of peripheral blasts ([5]; intermittent dosing): Six of the 9 | AUC (in vivo): ~3.2 µM·h | AUC(0-t) (in vivo): 1790 ng·h/mL | IC50 (RS4-11 cell line): 1000 nM | elevations in liver function tests (LFTS) ([6]; high dose (10 mg/kg/day)): 2- to 3 folds | neutropenia ([6]; high dose (very mild anemia)): Sustained neutropenia | clinical signs ([6]; low and middle doses (1, 3 mg/kg/day), 90 days): No significant clinical signs were observed | AUC at 90 days ([6]; rat, in vivo, 10 mg/kg/day, high dose, read-out: AUC at which LFT elevations were produced): ≥ 30 µM·h | half-life ([6]; rat, in vivo, read-out: terminal half-life (converted)): 5.7 h | half-life (clinical; 12 mg): ~67.2 h | AUC(0-t) (clinical; 12 mg): 757 ng·h/mL | half-life (clinical; 18 mg): 24 to 67.2 h | AUC(0-t) (clinical; 18 mg): 1380 ng·h/mL | duration of steady state exposure ([7]; human): 24 h | plasma exposure versus dose ([7]; human): dose proportional | bioavailability in humans ([7]; human, po, 12 mg): good bioavailability | human bioavailability ([7]; 18 mg): good human bioavailability | SS Cp ([8]; Mouse, 1 mg/kg): 143 ng/mL | efficacious plasma levels over the MV4;11 IC50 ([8]; mice, efficacious dose 1 mg/kg): about 800 fold | duration of steady state exposure ([8]; mouse): 6 h | AUC ([9]; dog, in vivo, 15 mg/kg/day, high dose, read-out: AUC at which LFT elevations were produced): ≥ 30 µM·h | half-life ([9]; dog, in vivo, read-out: terminal half-life (converted)): 5.9 h | weight gain suppression ([9]; high dose): 10% | elevations in liver function tests (LFTS) ([9]; high dose (15 mg/kg/day)): 3 to 6 folds | neutropenia ([9]; high dose (very mild anemia)): Sustained neutropenia | clinical signs ([9]; low and middle doses (1, 5 mg/kg/day), 90 days): No significant clinical signs were observed
